The subject of one test is rat. Nature of the test: standard rat tail flick assay. The settings on record: suspension in 20% PEG. In kind it is in vivo. The protocol:
The assay was the standard rat tail flick assay. Test agents were administered intravenously as suspensions in 20% PEG.
(Thermal pain tests record how soon the animal reacts.)

The test system of the next test is delta receptors. Nature of the test: binding to delta receptors relative to mu opiate receptor. The settings on record: delta versus mu opiate receptor.
The test system of another test is kappa receptors. The test is described as follows: binding to kappa receptors relative to mu opiate receptor. The settings on record: kappa versus mu opiate receptor.

7 molecules from patent US20210277057A1, “AD[…]-OPIATE RECEPTOR PEPTIDE COMPOUNDS” (Cytogel Pharma, LLC, priority 2009, published 2021) can be followed below.

Counter-ions that a name gives are not always drawn.

`NC(Cc1ccc(O)cc1)C(=O)NC1CCCCNC(=O)C(Cc2ccccc2)NC(=O)C(Cc2c[nH]c3ccccc23)NC1=O` [CYT-1010 Lactate, H-Tyr-c-[D-Lys-Trp-Phe]]: the “Activity % MPE Ave” value with rat (IV dose 2 mg/kg, listed as Lactate, 2 mg/kg) is 1.4%.

Turning to `NC(Cc1ccc(O)cc1)C(=O)NC1CCCCNC(=O)C(Cc2ccccc2)NC(=O)C(Cc2c[nH]c3ccccc23)NC1=O` [CYT-1010 TFA, H-Tyr-c-[D-Lys-Trp-Phe]], the “Activity % MPE Ave” value amounted to 25.4% in the test on rat (IV dose 4 mg/kg, listed as TFA, 4 mg/kg) and 71.2% in the test with rat (IV dose 8 mg/kg).

On to H-Tyr-Pro-Trp-Phe-NH2 [SEQ ID NO:1], for which the “weaker binding to delta receptors (selectivity for mu opiate receptor)” value with delta receptors is listed as “over 4000 fold”. For the same molecule, the “weaker binding to kappa receptors (selectivity for mu opiate receptor)” value in the test with kappa receptors is on record as “over 15,000 fold”.

Consider `NC(Cc1ccc(O)cc1)C(=O)NC1CCCCNC(=O)C(Cc2ccccc2)NC(=O)C(Cc2c[nH]c3ccccc23)NC1=O` [CYT-1010 Free Base, H-Tyr-c-[D-Lys-Trp-Phe]], for which the “Activity % MPE Ave” value with rat (IV dose 2 mg/kg, listed as Free Base, 2 mg/kg) is 77.7%; in the test with rat (IV dose 4 mg/kg, listed as Free Base, 4 mg/kg) it was 100.0%.

As to `NC(Cc1ccc(O)cc1)C(=O)NC1CCCCNC(=O)C(Cc2ccccc2)NC(=O)C(Cc2c[nH]c3ccccc23)NC1=O` [CYT-1010 Acetate, H-Tyr-c-[D-Lys-Trp-Phe]], the “Activity % MPE Ave” value in the test with rat (IV dose 2 mg/kg, listed as Acetate, 2 mg/kg) is given as 50.0%; with rat (IV dose 4 mg/kg, listed as Acetate, 4 mg/kg), 83.3%.

In the case of `NC(Cc1ccc(O)cc1)C(=O)NC1CCCCNC(=O)C(Cc2ccccc2)NC(=O)C(Cc2c[nH]c3ccccc23)NC1=O` [CYT-1010 HCL, H-Tyr-c-[D-Lys-Trp-Phe]], the “Activity % MPE Ave” value with rat (IV dose 4 mg/kg, listed as HCL, 4 mg/kg) is on record as 0.0%.

`NC(Cc1ccc(O)cc1)C(=O)NC1CCCCNC(=O)C(Cc2ccccc2)NC(=O)C(Cc2c[nH]c3ccccc23)NC1=O` [CYT-1010 Aspartate, H-Tyr-c-[D-Lys-Trp-Phe]]: in the test on rat (IV dose 2 mg/kg, listed as Aspartate, 2 mg/kg), the “Activity % MPE Ave” value is listed as 7.4%.
